Laboratory results reported in paper PMC9851200, “Multiparameter phenotypic screening for endogenous TFEB and TFE3 translocation identifies novel chemical series modulating lysosome function” (Autophagy, 2022).

Tests used:
Assay type in all cases: binding
[1] = molecular target: kinases (KINOMEscan panel) (Homo sapiens, UniProt O15264)
[2] = molecular target: kinases (KINOMEscan panel) (Homo sapiens, UniProt P00533, G719S); settings: EGFR(G719S); NEW KINOMEscan
[3] = molecular target: kinases (KINOMEscan panel) (Homo sapiens, UniProt P07949); settings: kinase RET; NEW KINOMEscan
[4] = molecular target: kinases (KINOMEscan panel) (Homo sapiens, UniProt P22694); settings: PRKACB; NEW KINOMEscan
[5] = molecular target: kinases (KINOMEscan panel) (Homo sapiens, UniProt P32298); settings: kinase GRK4; NEW KINOMEscan
[6] = molecular target: kinases (KINOMEscan panel) (Homo sapiens, UniProt P35916); settings: FLT4; NEW KINOMEscan
[7] = molecular target: T1, kinases (KINOMEscan panel) (Homo sapiens, UniProt Q8IYT8); settings: NEW KINOMEscan
T1 sequence (Q8IYT8 1-1036): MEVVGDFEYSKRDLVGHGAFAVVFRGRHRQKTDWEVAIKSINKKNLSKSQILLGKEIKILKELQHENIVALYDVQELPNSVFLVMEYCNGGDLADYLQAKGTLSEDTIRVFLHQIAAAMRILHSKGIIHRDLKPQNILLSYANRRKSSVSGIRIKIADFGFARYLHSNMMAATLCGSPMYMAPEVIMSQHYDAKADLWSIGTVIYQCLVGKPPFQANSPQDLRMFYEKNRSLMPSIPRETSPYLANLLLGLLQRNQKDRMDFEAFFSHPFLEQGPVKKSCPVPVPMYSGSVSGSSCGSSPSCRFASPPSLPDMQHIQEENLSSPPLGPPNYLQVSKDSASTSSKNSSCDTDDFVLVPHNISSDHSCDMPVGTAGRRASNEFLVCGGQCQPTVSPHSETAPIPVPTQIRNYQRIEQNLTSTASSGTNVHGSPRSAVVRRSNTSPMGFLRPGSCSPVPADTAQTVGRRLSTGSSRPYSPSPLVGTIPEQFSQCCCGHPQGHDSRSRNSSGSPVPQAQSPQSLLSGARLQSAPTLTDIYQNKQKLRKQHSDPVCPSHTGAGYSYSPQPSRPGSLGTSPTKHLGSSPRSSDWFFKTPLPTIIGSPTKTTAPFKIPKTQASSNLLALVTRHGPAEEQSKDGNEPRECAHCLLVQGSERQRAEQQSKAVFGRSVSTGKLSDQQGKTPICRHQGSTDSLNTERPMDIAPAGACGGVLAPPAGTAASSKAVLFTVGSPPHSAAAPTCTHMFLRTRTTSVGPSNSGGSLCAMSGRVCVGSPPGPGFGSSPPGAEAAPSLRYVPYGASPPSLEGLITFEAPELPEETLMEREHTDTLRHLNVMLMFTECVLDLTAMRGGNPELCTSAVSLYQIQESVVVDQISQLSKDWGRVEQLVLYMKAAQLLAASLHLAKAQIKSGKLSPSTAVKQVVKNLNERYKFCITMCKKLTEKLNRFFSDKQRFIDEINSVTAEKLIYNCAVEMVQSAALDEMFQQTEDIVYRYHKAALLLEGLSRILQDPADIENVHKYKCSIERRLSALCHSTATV

[8] = molecular target: kinases (KINOMEscan panel) (Homo sapiens, UniProt Q9BVS4); settings: RIOK2; NEW KINOMEscan
[9] = molecular target: T2, kinases (KINOMEscan panel) (Homo sapiens, UniProt Q9UBE8); settings: NLK; NEW KINOMEscan
T2 sequence (Q9UBE8 1-527): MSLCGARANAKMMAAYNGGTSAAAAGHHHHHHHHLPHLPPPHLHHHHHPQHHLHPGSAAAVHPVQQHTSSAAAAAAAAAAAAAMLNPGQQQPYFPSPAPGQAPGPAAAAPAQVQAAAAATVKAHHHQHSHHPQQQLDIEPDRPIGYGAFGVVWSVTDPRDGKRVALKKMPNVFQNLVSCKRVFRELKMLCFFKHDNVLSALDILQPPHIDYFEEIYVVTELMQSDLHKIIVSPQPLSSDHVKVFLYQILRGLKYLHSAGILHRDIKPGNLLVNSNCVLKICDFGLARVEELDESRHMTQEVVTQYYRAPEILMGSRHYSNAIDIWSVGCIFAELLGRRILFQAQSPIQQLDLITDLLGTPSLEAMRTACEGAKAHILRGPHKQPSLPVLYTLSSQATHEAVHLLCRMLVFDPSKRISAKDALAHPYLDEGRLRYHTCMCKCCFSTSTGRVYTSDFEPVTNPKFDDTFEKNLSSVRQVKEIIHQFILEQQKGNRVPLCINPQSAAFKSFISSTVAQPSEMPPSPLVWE

[10] = molecular target: kinases (KINOMEscan panel) (Homo sapiens, UniProt Q9Y243); settings: kinase AKT3; NEW KINOMEscan
Sequence of kinases (KINOMEscan panel) (Homo sapiens, UniProt Q9Y243) (Q9Y243 whole entry): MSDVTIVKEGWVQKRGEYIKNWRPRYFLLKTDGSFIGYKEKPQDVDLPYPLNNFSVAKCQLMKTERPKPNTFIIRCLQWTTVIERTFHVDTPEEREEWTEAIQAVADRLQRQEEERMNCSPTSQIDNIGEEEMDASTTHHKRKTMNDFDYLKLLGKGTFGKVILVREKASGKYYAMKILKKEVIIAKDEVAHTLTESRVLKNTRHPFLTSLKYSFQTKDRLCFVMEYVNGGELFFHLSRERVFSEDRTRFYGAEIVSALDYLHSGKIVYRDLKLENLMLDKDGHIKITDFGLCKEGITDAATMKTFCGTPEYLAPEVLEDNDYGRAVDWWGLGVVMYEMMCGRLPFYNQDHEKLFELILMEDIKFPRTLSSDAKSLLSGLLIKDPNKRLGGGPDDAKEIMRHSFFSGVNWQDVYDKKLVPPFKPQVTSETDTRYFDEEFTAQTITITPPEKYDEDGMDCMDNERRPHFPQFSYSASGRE

Sequence of kinases (KINOMEscan panel) (Homo sapiens, UniProt P35916) (P35916 25-1363): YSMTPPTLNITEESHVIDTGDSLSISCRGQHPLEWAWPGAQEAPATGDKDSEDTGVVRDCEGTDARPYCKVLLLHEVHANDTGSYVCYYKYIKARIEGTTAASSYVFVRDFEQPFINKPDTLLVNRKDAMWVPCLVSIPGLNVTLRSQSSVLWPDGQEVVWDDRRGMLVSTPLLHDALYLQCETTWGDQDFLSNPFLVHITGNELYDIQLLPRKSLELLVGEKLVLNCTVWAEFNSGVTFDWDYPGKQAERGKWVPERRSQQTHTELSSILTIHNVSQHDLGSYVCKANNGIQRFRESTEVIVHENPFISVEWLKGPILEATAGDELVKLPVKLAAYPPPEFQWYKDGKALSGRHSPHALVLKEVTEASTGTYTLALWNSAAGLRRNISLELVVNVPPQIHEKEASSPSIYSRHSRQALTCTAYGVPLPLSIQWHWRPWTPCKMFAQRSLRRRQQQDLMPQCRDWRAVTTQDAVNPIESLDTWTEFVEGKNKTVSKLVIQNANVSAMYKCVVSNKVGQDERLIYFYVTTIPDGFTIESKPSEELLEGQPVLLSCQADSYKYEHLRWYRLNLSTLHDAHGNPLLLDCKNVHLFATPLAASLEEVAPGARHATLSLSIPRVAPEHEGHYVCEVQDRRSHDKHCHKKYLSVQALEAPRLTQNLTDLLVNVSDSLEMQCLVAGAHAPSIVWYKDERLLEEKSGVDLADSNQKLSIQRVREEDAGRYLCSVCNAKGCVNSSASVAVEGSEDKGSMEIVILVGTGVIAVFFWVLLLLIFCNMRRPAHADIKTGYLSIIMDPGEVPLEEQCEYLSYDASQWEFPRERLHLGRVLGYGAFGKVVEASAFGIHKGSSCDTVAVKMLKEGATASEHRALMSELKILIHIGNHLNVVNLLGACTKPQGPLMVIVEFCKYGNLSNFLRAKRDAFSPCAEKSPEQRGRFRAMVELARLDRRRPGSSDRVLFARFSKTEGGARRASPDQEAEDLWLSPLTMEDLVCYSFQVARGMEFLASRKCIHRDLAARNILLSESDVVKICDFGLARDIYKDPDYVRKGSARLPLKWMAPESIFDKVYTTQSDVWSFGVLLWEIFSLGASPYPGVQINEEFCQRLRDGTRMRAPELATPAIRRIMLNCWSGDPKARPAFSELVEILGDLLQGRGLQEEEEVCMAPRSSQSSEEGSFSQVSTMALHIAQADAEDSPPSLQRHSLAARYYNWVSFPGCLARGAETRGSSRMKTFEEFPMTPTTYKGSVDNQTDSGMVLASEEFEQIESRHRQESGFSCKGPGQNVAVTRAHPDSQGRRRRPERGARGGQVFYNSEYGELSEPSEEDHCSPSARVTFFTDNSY
Sequence of kinases (KINOMEscan panel) (Homo sapiens, UniProt P00533, G719S) (P00533 25-1210 G719S): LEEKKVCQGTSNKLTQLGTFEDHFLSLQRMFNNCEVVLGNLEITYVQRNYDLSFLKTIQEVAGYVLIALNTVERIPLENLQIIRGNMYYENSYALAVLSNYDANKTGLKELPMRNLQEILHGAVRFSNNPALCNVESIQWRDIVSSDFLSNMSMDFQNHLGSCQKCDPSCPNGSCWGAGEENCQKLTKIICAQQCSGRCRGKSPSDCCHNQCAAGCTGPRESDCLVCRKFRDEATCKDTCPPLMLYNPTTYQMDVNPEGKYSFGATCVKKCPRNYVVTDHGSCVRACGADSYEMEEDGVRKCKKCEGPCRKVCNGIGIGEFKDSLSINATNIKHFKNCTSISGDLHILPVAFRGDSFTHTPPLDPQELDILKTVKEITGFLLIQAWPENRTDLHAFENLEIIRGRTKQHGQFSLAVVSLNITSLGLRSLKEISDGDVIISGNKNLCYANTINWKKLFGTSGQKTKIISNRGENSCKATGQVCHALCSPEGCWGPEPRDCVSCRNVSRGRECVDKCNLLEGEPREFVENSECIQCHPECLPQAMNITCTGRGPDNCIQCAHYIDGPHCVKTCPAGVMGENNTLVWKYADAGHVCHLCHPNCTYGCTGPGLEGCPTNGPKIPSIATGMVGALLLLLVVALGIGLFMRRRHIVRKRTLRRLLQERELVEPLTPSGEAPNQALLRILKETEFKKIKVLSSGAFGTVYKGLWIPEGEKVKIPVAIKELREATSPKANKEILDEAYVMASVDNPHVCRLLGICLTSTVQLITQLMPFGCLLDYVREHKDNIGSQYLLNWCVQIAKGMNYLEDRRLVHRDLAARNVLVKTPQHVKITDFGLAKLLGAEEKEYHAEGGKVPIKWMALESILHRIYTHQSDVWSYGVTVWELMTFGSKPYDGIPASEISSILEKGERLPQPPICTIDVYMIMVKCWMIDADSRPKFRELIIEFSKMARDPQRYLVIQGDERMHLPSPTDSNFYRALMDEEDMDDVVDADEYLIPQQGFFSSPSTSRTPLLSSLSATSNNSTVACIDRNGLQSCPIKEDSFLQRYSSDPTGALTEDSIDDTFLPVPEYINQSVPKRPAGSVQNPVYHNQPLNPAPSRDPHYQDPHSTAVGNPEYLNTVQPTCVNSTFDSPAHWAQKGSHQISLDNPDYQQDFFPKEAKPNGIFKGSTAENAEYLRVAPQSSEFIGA
Sequence of kinases (KINOMEscan panel) (Homo sapiens, UniProt O15264) (O15264 whole entry): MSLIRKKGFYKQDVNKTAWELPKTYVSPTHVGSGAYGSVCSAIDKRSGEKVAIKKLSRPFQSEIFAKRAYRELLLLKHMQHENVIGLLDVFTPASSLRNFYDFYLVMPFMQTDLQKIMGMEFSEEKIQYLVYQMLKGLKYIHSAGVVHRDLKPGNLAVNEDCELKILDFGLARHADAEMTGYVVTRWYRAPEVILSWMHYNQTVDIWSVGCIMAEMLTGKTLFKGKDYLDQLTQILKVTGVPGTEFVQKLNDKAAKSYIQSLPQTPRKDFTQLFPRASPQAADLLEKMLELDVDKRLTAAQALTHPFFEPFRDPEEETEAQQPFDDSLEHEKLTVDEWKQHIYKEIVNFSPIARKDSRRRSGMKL
Sequence of kinases (KINOMEscan panel) (Homo sapiens, UniProt Q9BVS4) (Q9BVS4 whole entry): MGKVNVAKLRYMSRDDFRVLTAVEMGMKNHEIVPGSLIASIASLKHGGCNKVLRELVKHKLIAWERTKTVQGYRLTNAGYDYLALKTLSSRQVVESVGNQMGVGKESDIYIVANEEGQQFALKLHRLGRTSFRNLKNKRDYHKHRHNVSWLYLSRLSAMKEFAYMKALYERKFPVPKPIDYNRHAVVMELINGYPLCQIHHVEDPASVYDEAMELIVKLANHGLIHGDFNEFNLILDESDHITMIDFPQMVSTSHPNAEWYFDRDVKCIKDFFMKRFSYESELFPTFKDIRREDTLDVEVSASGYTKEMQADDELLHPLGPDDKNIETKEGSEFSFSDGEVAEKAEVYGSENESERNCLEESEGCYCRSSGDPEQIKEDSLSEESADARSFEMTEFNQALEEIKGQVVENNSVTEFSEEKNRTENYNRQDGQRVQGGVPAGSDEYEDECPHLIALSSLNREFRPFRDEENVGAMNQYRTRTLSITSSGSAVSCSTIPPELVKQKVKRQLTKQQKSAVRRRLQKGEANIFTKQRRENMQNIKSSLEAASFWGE
Sequence of kinases (KINOMEscan panel) (Homo sapiens, UniProt P07949) (P07949 29-1114): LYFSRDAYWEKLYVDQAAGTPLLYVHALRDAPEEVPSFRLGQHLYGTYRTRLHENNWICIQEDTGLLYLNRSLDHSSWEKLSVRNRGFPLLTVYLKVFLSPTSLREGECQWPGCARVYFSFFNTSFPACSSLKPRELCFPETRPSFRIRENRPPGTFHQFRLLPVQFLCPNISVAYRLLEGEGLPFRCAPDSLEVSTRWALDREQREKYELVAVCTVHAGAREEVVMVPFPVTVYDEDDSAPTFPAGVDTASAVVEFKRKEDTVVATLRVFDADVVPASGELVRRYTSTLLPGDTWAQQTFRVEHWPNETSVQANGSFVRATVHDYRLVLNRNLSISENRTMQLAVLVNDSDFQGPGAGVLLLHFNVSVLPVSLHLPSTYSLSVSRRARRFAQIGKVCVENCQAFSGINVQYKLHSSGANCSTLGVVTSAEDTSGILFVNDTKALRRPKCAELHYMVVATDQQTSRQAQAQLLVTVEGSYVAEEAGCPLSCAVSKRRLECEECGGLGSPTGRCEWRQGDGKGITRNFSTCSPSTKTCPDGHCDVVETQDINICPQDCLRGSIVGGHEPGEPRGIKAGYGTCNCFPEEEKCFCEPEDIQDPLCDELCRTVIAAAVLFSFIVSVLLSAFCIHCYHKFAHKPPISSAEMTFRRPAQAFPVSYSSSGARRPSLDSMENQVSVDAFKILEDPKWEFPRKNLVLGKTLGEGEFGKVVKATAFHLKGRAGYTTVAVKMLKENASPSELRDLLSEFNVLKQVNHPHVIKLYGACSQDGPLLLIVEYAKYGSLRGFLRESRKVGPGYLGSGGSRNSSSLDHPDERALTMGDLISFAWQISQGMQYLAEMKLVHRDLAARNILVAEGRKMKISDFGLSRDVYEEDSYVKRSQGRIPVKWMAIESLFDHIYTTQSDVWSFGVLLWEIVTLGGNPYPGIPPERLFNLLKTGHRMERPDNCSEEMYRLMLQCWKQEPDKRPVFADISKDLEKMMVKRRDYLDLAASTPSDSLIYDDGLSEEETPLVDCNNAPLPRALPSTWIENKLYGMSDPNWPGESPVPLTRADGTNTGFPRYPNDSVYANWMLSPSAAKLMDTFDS

With `Cc1cccc(-c2nc(Nc3ccc4nn(C)cc4c3)c3ccccc3n2)n1` [NK167] the “KINOMEscan MAPK13/p38-delta” value [1] was 0, the “KINOMEscan EGFR(G719S)” value [2] was 0 and the “KINOMEscan RET” value [3] was 0. For the same compound, the “KINOMEscan PRKACB” value [4] was 1, the “KINOMEscan GRK4” value [5] was 0 and the “KINOMEscan FLT4” value [6] was 0. The “KINOMEscan ULK2” value [7] was 17, the “KINOMEscan RIOK2” value [8] was 3 and the “KINOMEscan NLK” value [9] was 0. For the same compound, the “KINOMEscan AKT3” value [10] was 0.

For `Cc1cccc(-c2nc(N(C)c3ccc4ncsc4c3)c3ccccc3n2)n1` [NK-161], the “KINOMEscan MAPK13/p38-delta” value [1] was 6, the “KINOMEscan EGFR(G719S)” value [2] was 0 and the “KINOMEscan RET” value [3] was 0. For the same compound, the “KINOMEscan PRKACB” value [4] was 6, the “KINOMEscan GRK4” value [5] was 0 and the “KINOMEscan FLT4” value [6] was 1. For the same compound, the “KINOMEscan ULK2” value [7] was 23, the “KINOMEscan RIOK2” value [8] was 3 and the “KINOMEscan NLK” value [9] was 0. The “KINOMEscan AKT3” value [10] was 0.
